Assay results taken from PubChem BioAssay (NCI).
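Five concentrations, 48 hours, 96-well plates. Here, GI50 denotes the concentration required for 50% inhibition of growth. TGI marks complete inhibition of growth.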

Key:
Assay in all cases: NCI anticancer screen, dose series, 48 h
HT29 colon = test system: HT29 colon
NCI-H522 lung = test system: NCI-H522 lung
MDA-MB-231 breast = test system: MDA-MB-231 breast
SF-295 CNS = test system: SF-295 CNS
HL-60(TB) leukemia = test system: HL-60(TB) leukemia
UACC-62 melanoma = test system: UACC-62 melanoma
T-47D breast = test system: T-47D breast
U251 CNS = test system: U251 CNS
OVCAR-3 ovarian = test system: OVCAR-3 ovarian
HS 578T breast = test system: HS 578T breast
LOX IMVI melanoma = test system: LOX IMVI melanoma
MCF7 breast = test system: MCF7 breast
MALME-3M melanoma = test system: MALME-3M melanoma
SNB-19 CNS = test system: SNB-19 CNS
KM12 colon = test system: KM12 colon
HCT-116 colon = test system: HCT-116 colon
A498 renal = test system: A498 renal
HCC-2998 colon = test system: HCC-2998 colon
DU-145 prostate = test system: DU-145 prostate
ACHN renal = test system: ACHN renal
SN12C renal = test system: SN12C renal
EKVX NSCLC = test system: EKVX NSCLC
UO-31 renal = test system: UO-31 renal
NCI-H460 lung = test system: NCI-H460 lung
HOP-92 NSCLC = test system: HOP-92 NSCLC
SK-MEL-2 melanoma = test system: SK-MEL-2 melanoma
CAKI-1 renal = test system: CAKI-1 renal
M14 melanoma = test system: M14 melanoma
A549 NSCLC = test system: A549 NSCLC
NCI-H226 lung = test system: NCI-H226 lung
786-0 renal = test system: 786-0 renal
IGROV1 ovarian = test system: IGROV1 ovarian
UACC-257 melanoma = test system: UACC-257 melanoma
SK-MEL-5 melanoma = test system: SK-MEL-5 melanoma
SK-MEL-28 melanoma = test system: SK-MEL-28 melanoma
MDA-MB-468 breast = test system: MDA-MB-468 breast
OVCAR-5 ovarian = test system: OVCAR-5 ovarian
PC-3 prostate = test system: PC-3 prostate
SW-620 colon = test system: SW-620 colon
SF-539 CNS = test system: SF-539 CNS
OVCAR-4 ovarian = test system: OVCAR-4 ovarian
HCT-15 colon = test system: HCT-15 colon
SNB-75 CNS = test system: SNB-75 CNS
K-562 leukemia = test system: K-562 leukemia
MOLT-4 leukemia = test system: MOLT-4 leukemia
HOP-62 NSCLC = test system: HOP-62 NSCLC
NCI/ADR-RES ovarian = test system: NCI/ADR-RES ovarian
CCRF-CEM leukemia = test system: CCRF-CEM leukemia
SF-268 CNS = test system: SF-268 CNS
TK-10 renal = test system: TK-10 renal
SK-OV-3 ovarian = test system: SK-OV-3 ovarian
BT-549 breast = test system: BT-549 breast
OVCAR-8 ovarian = test system: OVCAR-8 ovarian
RXF 393 renal = test system: RXF 393 renal
NCI-H23 lung = test system: NCI-H23 lung
COLO 205 colon = test system: COLO 205 colon
RPMI-8226 leukemia = test system: RPMI-8226 leukemia
MDA-MB-435 = test system: MDA-MB-435

## CN(C)CCCNC(=O)c1cc(NC(=O)c2cc(NC(=O)c3ccc(/C=C/c4ccccc4)cc3)cn2C)cn1C
HT29 colon
  GI50: 5.89 µM
  TGI: 21.1 µM
NCI-H522 lung
  GI50: 7.34 µM
  TGI: 24.2 µM
MDA-MB-231 breast
  GI50: 8.81 µM
  TGI: > 31.3 µM
SF-295 CNS
  GI50: 8.56 µM
  TGI: > 31.3 µM
HL-60(TB) leukemia
  GI50: 7.05 µM
  TGI: 20.7 µM
UACC-62 melanoma
  GI50: 7.46 µM
  TGI: > 31.3 µM
T-47D breast
  GI50: 6.01 µM
  TGI: > 31.3 µM
U251 CNS
  GI50: 5.36 µM
  TGI: 10.7 µM
OVCAR-3 ovarian
  GI50: 6.75 µM
  TGI: 26.4 µM
HS 578T breast
  GI50: 8.39 µM
  TGI: > 31.3 µM
LOX IMVI melanoma
  GI50: 4.67 µM
  TGI: 8.86 µM
MCF7 breast
  GI50: 1.71 µM
  TGI: 6.85 µM
MALME-3M melanoma
  GI50: 7.41 µM
  TGI: > 31.3 µM
SNB-19 CNS
  GI50: 16.7 µM
  TGI: > 31.3 µM
KM12 colon
  GI50: 7.16 µM
  TGI: 18.5 µM
HCT-116 colon
  GI50: 5.36 µM
  TGI: 13.4 µM
A498 renal
  GI50: 25.2 µM
  TGI: > 31.3 µM
HCC-2998 colon
  GI50: 10.1 µM
  TGI: > 31.3 µM
DU-145 prostate
  GI50: 11.5 µM
  TGI: > 31.3 µM
ACHN renal
  GI50: 11.5 µM
  TGI: > 31.3 µM
SN12C renal
  GI50: 7.41 µM
  TGI: > 31.3 µM
EKVX NSCLC
  GI50: 10.6 µM
  TGI: > 31.3 µM
UO-31 renal
  GI50: 9.91 µM
  TGI: > 31.3 µM
NCI-H460 lung
  GI50: 6.91 µM
  TGI: 16.2 µM
HOP-92 NSCLC
  GI50: 3.95 µM
  TGI: 17.7 µM
SK-MEL-2 melanoma
  GI50: 5.32 µM
  TGI: 10.9 µM
CAKI-1 renal
  GI50: 10.9 µM
  TGI: > 31.3 µM
M14 melanoma
  GI50: 5.05 µM
  TGI: 10.1 µM
A549 NSCLC
  GI50: 13.3 µM
  TGI: > 31.3 µM
NCI-H226 lung
  GI50: 9.93 µM
  TGI: > 31.3 µM
786-0 renal
  GI50: 9.14 µM
  TGI: > 31.3 µM
IGROV1 ovarian
  GI50: 22.5 µM
  TGI: > 31.3 µM
UACC-257 melanoma
  GI50: 10.5 µM
  TGI: > 31.3 µM
SK-MEL-5 melanoma
  GI50: 8.85 µM
  TGI: > 31.3 µM
SK-MEL-28 melanoma
  GI50: 15.2 µM
  TGI: > 31.3 µM
MDA-MB-468 breast
  GI50: 5.72 µM
  TGI: 14.5 µM
OVCAR-5 ovarian
  GI50: 20.3 µM
  TGI: > 31.3 µM
PC-3 prostate
  GI50: 10.1 µM
  TGI: > 31.3 µM
SW-620 colon
  GI50: 6.62 µM
  TGI: 14.9 µM
SF-539 CNS
  GI50: 5.41 µM
  TGI: 10.9 µM
OVCAR-4 ovarian
  GI50: 16.1 µM
  TGI: > 31.3 µM
HCT-15 colon
  GI50: 7.26 µM
  TGI: 25.7 µM
SNB-75 CNS
  GI50: 1.98 µM
  TGI: 24.6 µM
K-562 leukemia
  GI50: 5.83 µM
  TGI: 19 µM
MOLT-4 leukemia
  GI50: 7.27 µM
  TGI: 25.9 µM
HOP-62 NSCLC
  GI50: 7.16 µM
  TGI: 19.8 µM
NCI/ADR-RES ovarian
  GI50: 7.76 µM
  TGI: 24.3 µM
CCRF-CEM leukemia
  GI50: 5.03 µM
  TGI: 21.5 µM
SF-268 CNS
  GI50: 10.6 µM
  TGI: > 31.3 µM
TK-10 renal
  GI50: 12.1 µM
  TGI: > 31.3 µM
SK-OV-3 ovarian
  GI50: 17.6 µM
  TGI: > 31.3 µM
BT-549 breast
  GI50: 4.28 µM
  TGI: 16.5 µM
OVCAR-8 ovarian
  GI50: 6.5 µM
  TGI: 18.7 µM
RXF 393 renal
  GI50: 3.2 µM
  TGI: 19 µM
NCI-H23 lung
  GI50: 13.2 µM
  TGI: > 31.3 µM
COLO 205 colon
  GI50: 9.44 µM
  TGI: 26.4 µM
RPMI-8226 leukemia
  GI50: 3.51 µM
  TGI: 16.5 µM
MDA-MB-435
  GI50: 8.48 µM
  TGI: > 31.3 µM
